Laboratory results reported in patent US10105357B2, “Indication of antibiotic drugs for preparation of cancer inhibition pharmaceutical composition” (LAUNX BIOMEDICAL CO., LTD., priority 2014, dated 2018).
Counter-ions that a name gives are not always drawn. Like-named read-outs stand apart in the source and are kept apart here.

How the values were obtained:
[1] = tested on: BCC (basal cell carcinoma); assay: Cell viability analysis, skin cancer BCC; format: cell-based, human; conditions: Homo sapiens, 72 h, read-out: The results of antibiotic drug inhibiting cancer cell lines (cell viability analysis), BCC
[2] = tested on: HI650 (Lung Adenocarcinoma); assay: Cell viability analysis, lung cancer HI650; format: cell-based, human; conditions: Homo sapiens, NCI-H1650, 72 h
BxPC-3 = assay: Cell viability analysis, pancreatic cancer BxPC-3; format: cell-based, human; conditions: Homo sapiens, BXPC-3, 72 h, read-out: The results of antibiotic drug inhibiting cancer cell lines (cell viability analysis), BxPC-3
[3] = tested on: MDA-MB-231 (Mammary Gland, Adenocarcinoma); assay: Cell viability analysis, breast cancer MDA-MB-231; format: cell-based, human; conditions: Homo sapiens, MDA-MB-231, 72 h, read-out: The results of antibiotic drug inhibiting cancer cell lines (cell viability analysis), MDA-MB231
[4] = tested on: A375 (Amelanotic Melanoma); assay: Cell viability analysis, skin cancer A375; format: cell-based, human; conditions: Homo sapiens, A-375, 72 h, read-out: cell viability (survival rate), A375, drug 10 μM, 72 hours, WST-1, OD450 nm
[5] = tested on: PC3 (p53−) (Prostate Adenocarcinoma); assay: Cell viability analysis, prostate cancer PC3; format: cell-based, human; conditions: Homo sapiens, 72 h
[6] = tested on: MKN-45 (Gastric Adenocarcinoma); assay: Cell viability analysis, gastric cancer MKN-45; format: cell-based, human; conditions: Homo sapiens, MKN-45, 72 h
[7] = tested on: LoVo (Colorectal Adenocarcinoma); assay: Cell viability analysis, colon cancer LoVo; format: cell-based, human; conditions: Homo sapiens, LoVo, 72 h
T24 = assay: Cell viability analysis, bladder cancer T24; format: cell-based, human; conditions: Homo sapiens, T-24, 72 h, read-out: The results of antibiotic drug inhibiting cancer cell lines (cell viability analysis), T24
[8] = tested on: A549 (Lung Adenocarcinoma); assay: Cell viability analysis, lung cancer A549; format: cell-based, human; conditions: Homo sapiens, A549, 72 h
AsPC-1 = assay: Cell viability analysis, pancreatic cancer AsPC-1; format: cell-based, human; conditions: Homo sapiens, ASPC1, 72 h, read-out: The results of antibiotic drug inhibiting cancer cell lines (cell viability analysis), AsPC-1
[9] = tested on: TSGH-8301 (Urinary Bladder Carcinoma); assay: Cell viability analysis, bladder cancer TSGH-8301; format: cell-based, human; conditions: Homo sapiens, 72 h
cancer cell lines = assay: Cell viability analysis (WST-1) on cancer cell lines; format: cell-based, human; conditions: drug 10 μM, 72 hours, WST-1; Table 3
[10] = tested on: HeLa (Cervix Adenocarcinoma); assay: Cell viability analysis, cervical cancer HeLa; format: cell-based, human; conditions: Homo sapiens, HeLa, 72 h
[11] = tested on: HCT116 (p53+) (Colorectal Carcinoma)
TOV-21G = assay: Cell viability analysis, ovarian cancer TOV-21G; format: cell-based, human; conditions: Homo sapiens, TOV21G, 72 h, read-out: The results of antibiotic drug inhibiting cancer cell lines (cell viability analysis), TOV-21G
[12] = tested on: Hep3B (hepatocellular carcinoma); assay: Cell viability analysis, hepatic cancer Hep3B; format: cell-based, human; conditions: Homo sapiens, Hep3B, 72 h, read-out: The results of antibiotic drug inhibiting cancer cell lines (cell viability analysis), Hep3B
[13] = tested on: SAS (Tongue squamous cell carcinoma); assay: Cell viability analysis, tongue cancer SAS; format: cell-based, human; conditions: Homo sapiens, 72 h, read-out: The results of antibiotic drug inhibiting cancer cell lines (cell viability analysis), SAS
[14] = tested on: AGS (Gastric Adenocarcinoma); assay: Cell viability analysis, gastric cancer AGS; format: cell-based, human; conditions: Homo sapiens, 72 h
[15] = tested on: HL-60 (Acute Promyelocytic Leukemia); assay: Cell viability analysis, leukemia HL-60; format: cell-based, human; conditions: Homo sapiens, HL-60, 72 h, read-out: cell viability (survival rate), HL-60, drug 10 μM, 72 hours, WST-1, OD450 nm
[16] = tested on: MCF7 (Mammary Gland, Adenocarcinoma); assay: Cell viability analysis, breast cancer MCF7; format: cell-based, human; conditions: Homo sapiens, MCF7, 72 h
U-2OS = assay: Cell viability analysis, osteosarcoma U-2OS; format: cell-based, human; conditions: Homo sapiens, U2OS, 72 h, read-out: The results of antibiotic drug inhibiting cancer cell lines (cell viability analysis), U2OS
[17] = tested on: C-33A (Cervical carcinoma); assay: Cell viability analysis, cervical cancer C-33A; format: cell-based, human; conditions: Homo sapiens, C-33-A, 72 h, read-out: The results of antibiotic drug inhibiting cancer cell lines (cell viability analysis), C-33A
[18] = tested on: HepG2 (Hepatocellular Carcinoma); assay: Cell viability analysis, hepatic cancer HepG2; format: cell-based, human; conditions: Homo sapiens, HepG2, 72 h
[19] = tested on: 786-O (Renal adenocarcinoma); assay: Cell viability analysis, renal cancer 786-O; format: cell-based, human; conditions: Homo sapiens, 786-0, 72 h, read-out: The results of antibiotic drug inhibiting cancer cell lines (cell viability analysis), 786-O

`CN(C)CCC[C@@]1(c2ccc(F)cc2)OCc2cc(C#N)ccc21` [Escitalopram oxalate] showed a viability at 10 µM [1] of 102%, a viability at 10 µM ([2]; read-out: The results of antibiotic drug inhibiting cancer cell lines (cell viability analysis), H1650, H1650, repeated experiment) of 92.1% and a viability at 10 µM ([2]; read-out: cell viability (survival rate), H1650, drug 10 μM, 72 hours, WST-1, OD450 nm) of 80.4%. For the same compound, the viability at 10 µM (BxPC-3) was 68.1%, the viability at 10 µM [3] was 111% and the viability at 10 µM [4] was 68%. The viability at 10 µM ([5]; read-out: The results of antibiotic drug inhibiting cancer cell lines (cell viability analysis), PC-3, PC-3, repeated experiment) was 120%, the viability at 10 µM ([5]; read-out: cell viability (survival rate), PC3, drug 10 μM, 72 hours, WST-1, OD450 nm) was 79.5% and the viability at 10 µM ([6]; read-out: The results of antibiotic drug inhibiting cancer cell lines (cell viability analysis), MKN-45, MKN-45, repeated experiment) was 127%. The viability at 10 µM ([6]; read-out: cell viability (survival rate), MKN-45, drug 10 μM, 72 hours, WST-1, OD450 nm) was 116%, the viability at 10 µM ([7]; read-out: The results of antibiotic drug inhibiting cancer cell lines (cell viability analysis), LoVo, repeated experiment) was 89.3% and the viability at 10 µM ([7]; read-out: cell viability (survival rate), LoVo, drug 10 μM, 72 hours, WST-1, OD450 nm) was 91.6%. The viability at 10 µM (T24) was 97.7%, the viability at 10 µM ([8]; read-out: The results of antibiotic drug inhibiting cancer cell lines (cell viability analysis), A549, A549, repeated experiment) was 103% and the viability at 10 µM ([8]; read-out: cell viability (survival rate), A549, drug 10 μM, 72 hours, WST-1, OD450 nm) was 122%. For the same compound, the viability at 10 µM (AsPC-1) was 80.3%, the viability at 10 µM ([9]; read-out: The results of antibiotic drug inhibiting cancer cell lines (cell viability analysis), TSGH-8301, TSGH-8301, repeated experiment) was 135% and the viability at 10 µM ([9]; read-out: cell viability (survival rate), TSGH, drug 10 μM, 72 hours, WST-1, OD450 nm) was 80.6%. The “inhibition effect on different cancer cell lines” value (cancer cell lines) was “significant inhibition effect”, the viability at 10 µM ([10]; read-out: The results of antibiotic drug inhibiting cancer cell lines (cell viability analysis), HeLa, repeated experiment) was 126% and the viability at 10 µM ([10]; read-out: cell viability (survival rate), HeLa, drug 10 μM, 72 hours, WST-1, OD450 nm) was 95%. For the same compound, the viability [11] was 123%, the viability at 10 µM (TOV-21G) was 117% and the viability at 10 µM [12] was 134%. It also gave a viability at 10 µM [13] of 65.3%, a viability at 10 µM ([14]; read-out: The results of antibiotic drug inhibiting cancer cell lines (cell viability analysis), AGS, repeated experiment) of 145% and a viability at 10 µM ([14]; read-out: cell viability (survival rate), AGS, drug 10 μM, 72 hours, WST-1, OD450 nm) of 62.3%. It also gave a viability at 10 µM [15] of 92.7%, a viability at 10 µM ([16]; read-out: The results of antibiotic drug inhibiting cancer cell lines (cell viability analysis), MCF-7, MCF-7, repeated experiment) of 80.1% and a viability at 10 µM ([16]; read-out: cell viability (survival rate), MCF7, drug 10 μM, 72 hours, WST-1, OD450 nm) of 97.4%. The viability at 10 µM (U-2OS) was 62.2%, the viability at 10 µM [17] was 110% and the viability at 10 µM ([18]; read-out: The results of antibiotic drug inhibiting cancer cell lines (cell viability analysis), HepG2, HepG2, repeated experiment) was 113%. The viability at 10 µM ([18]; read-out: cell viability (survival rate), HepG2, drug 10 μM, 72 hours, WST-1, OD450 nm) was 94% and the viability at 10 µM [19] was 88.8%.
